Test results reported in article PMC9027532, “Preclinical Pharmacokinetic Studies of a Novel Diuretic Inhibiting Urea Transporters” (Molecules, 2022).

How the values were obtained:
UT-B = tested on: UT-B; set-up: method as in PMID 34601246; conditions: mice; read-out: inhibitory effect on UT-B; cited from earlier work
in vivo = conditions: male, Sprague-Dawley, rat, po
[1] = Stability of 25a in rat plasma, urine, feces and bile under storage conditions; format: in vitro ADME
Protocol: The stability profiles of 25a in the given matrices stored under different conditions (4 °C for 24 h, 25 °C for 4 h, three freeze–thaw cycles, and −80 °C for 30 days) are shown in Table 5.
The accuracy and precision were evaluated by calculating the intraday and interday RE and CV of the QC samples. The RE should be within ±15% of the theoretical concentrations (3, 100, and 800 ng/mL). The CV values should be no more than 15%. For the LLOQ, the cutoff values of RE and CV were 100% ± 20% and <20%. The stability of 25a in the biological matrices (rat plasma, urine, fecal homogenate, and bile) was assessed at 3, 100, and 800 ng/mL (n = 6) under different storage conditions, which included storage at room temperature for 4 h, storage at 4 °C for 24 h, three freeze–thaw cycles, and storage at −80 °C for 30 days.

[2] = Blood plasma ratio, human blood; format: in vitro ADME; conditions: for Blood Plasma Ratio: human
Protocol: The BPR of 25a in rats and humans was assessed. […] In addition, a significant species difference between rats and humans was observed (p < 0.05, Student’s t-test, n = 3).
The blood plasma ratio of 25a was investigated as previously reported. Briefly, fresh whole blood was collected into collection tubes containing K2–EDTA as an anticoagulant from SD rats and healthy volunteers. Blood spiked with 50, 500, and 2500 ng/mL 25a was incubated in the incubator with 5% CO2 at 37 ± 1 °C for 1 h. Some of the incubated samples were processed as blood samples; the remaining incubated samples were centrifuged to generate plasma samples. The concentration of 25a in samples was determined using the validated LC–MS/MS method.

[3] = Plasma protein binding by equilibrium dialysis, rat plasma; format: in vitro ADME, SD rats
Protocol: The plasma protein binding (PPB) and blood plasma ratio (BPR) are crucial parameters influencing the drug distribution and elimination in plasma. The PPB profile of 25a was evaluated by equilibrium dialysis, a classic method to assess the interactions of small molecules with proteins. The PPB of 25a was tested at 50, 500, and 2500 ng/mL (Table 7). […] When considering the allometric scaling of PK parameters, the species difference of protein binding between humans and rats should be considered.
The plasma protein binding (PPB) ratio of 25a was assessed via equilibrium dialysis in SD rats and human plasma. Four hundred microliters of plasma containing 50, 500, or 2500 ng/mL 25a were loaded into the dialysis bags (plasma side), and the bags were placed into tubes containing 4 mL of the dialysis buffer (buffer side). The tubes were then rotated at approximately 100 rpm in a humidified incubator with 5% CO2 at 37 ± 1 °C for 5 h.
After the 5 h dialysis, aliquots of 50 μL samples were taken from both the buffer and the plasma sides. An equal volume of the opposite blank matrix (buffer or plasma) was added to each sample to reach a final volume of 100 μL with a volume ratio of plasma to dialysis buffer at 1:1 (v/v). All samples were further processed by adding 600 μL of stop solution (containing 10 ng/mL IS) to precipitate protein for LC–MS/MS analysis. The PPB ratio (%) was calculated by PPB% = 100% × (1 − Conc.buffer side/Conc.plasma side).

CC(=O)Nc1ccc(NC(=O)c2ccc(C(C)=O)o2)cc1 [Compound 25a, N-(4-acetamidophenyl)-5-acetylfuran-2-carboxamide]
MRT (in vivo): ~5.4 h
MRT (in vivo; 50 mg/kg): 5.4 ± 0.8 h
AUC(0-t) (in vivo; 100 mg/kg): 6920 ± 377 ng·h/mL
Stability RE ([1]; rat bile, HQC 800 ng/mL, 4 °C for 24 h): −7.1%
Stability RE ([1]; rat bile, HQC 800 ng/mL, 25 °C for 4 h): −7.8%
Stability RE ([1]; rat bile, HQC 800 ng/mL, three freeze–thaw cycles): −12.2%
Stability RE ([1]; rat bile, HQC 800 ng/mL, −80 °C for 30 days): −7.1%
Stability RE ([1]; rat bile, LQC 3 ng/mL, 4 °C for 24 h): −14.7%
Stability RE ([1]; rat bile, LQC 3 ng/mL, 25 °C for 4 h): −14.9%
Stability RE ([1]; rat bile, LQC 3 ng/mL, three freeze–thaw cycles): −5.8%
Stability RE ([1]; rat bile, LQC 3 ng/mL, −80 °C for 30 days): −2.1%
Stability RE ([1]; rat bile, MQC 100 ng/mL, 4 °C for 24 h): −3.9%
Stability RE ([1]; rat bile, MQC 100 ng/mL, 25 °C for 4 h): −5.1%
Stability RE ([1]; rat bile, MQC 100 ng/mL, three freeze–thaw cycles): −5.2%
Stability RE ([1]; rat bile, MQC 100 ng/mL, −80 °C for 30 days): −3.9%
Stability RE ([1]; rat feces, HQC 800 ng/mL, 4 °C for 24 h): −5.3%
Stability RE ([1]; rat feces, HQC 800 ng/mL, 25 °C for 4 h): −2.4%
Stability RE ([1]; rat feces, HQC 800 ng/mL, three freeze–thaw cycles): −9.1%
Stability RE ([1]; rat feces, HQC 800 ng/mL, −80 °C for 30 days): −5.3%
Stability RE ([1]; rat feces, LQC 3 ng/mL, 4 °C for 24 h): 3.9%
Stability RE ([1]; rat feces, LQC 3 ng/mL, 25 °C for 4 h): −5.2%
Stability RE ([1]; rat feces, LQC 3 ng/mL, three freeze–thaw cycles): −5.2%
Stability RE ([1]; rat feces, LQC 3 ng/mL, −80 °C for 30 days): 1.2%
Stability RE ([1]; rat feces, MQC 100 ng/mL, 25 °C for 4 h): 1.3%
Stability RE ([1]; rat feces, MQC 100 ng/mL, three freeze–thaw cycles): −3.2%
Stability RE ([1]; rat plasma, HQC 800 ng/mL, 4 °C for 24 h): −4.5%
Stability RE ([1]; rat plasma, HQC 800 ng/mL, 25 °C for 4 h): −3.1%
Stability RE ([1]; rat plasma, HQC 800 ng/mL, three freeze–thaw cycles): −7.6%
Stability RE ([1]; rat plasma, HQC 800 ng/mL, −80 °C for 30 days): −4.5%
Stability RE ([1]; rat plasma, LQC 3 ng/mL, 4 °C for 24 h): 2.8%
Stability RE ([1]; rat plasma, LQC 3 ng/mL, 25 °C for 4 h): −4.9%
Stability RE ([1]; rat plasma, LQC 3 ng/mL, three freeze–thaw cycles): −3.6%
Stability RE ([1]; rat plasma, LQC 3 ng/mL, −80 °C for 30 days): 1.1%
Stability RE ([1]; rat plasma, MQC 100 ng/mL, 4 °C for 24 h): 3.7%
Stability RE ([1]; rat plasma, MQC 100 ng/mL, 25 °C for 4 h): −2.5%
Stability RE ([1]; rat plasma, MQC 100 ng/mL, three freeze–thaw cycles): −4.0%
Stability RE ([1]; rat plasma, MQC 100 ng/mL, −80 °C for 30 days): 3.7%
Stability RE ([1]; rat urine, HQC 800 ng/mL, 4 °C for 24 h): −2.3%
Stability RE ([1]; rat urine, HQC 800 ng/mL, 25 °C for 4 h): −2.3%
Stability RE ([1]; rat urine, HQC 800 ng/mL, three freeze–thaw cycles): −1.5%
Stability RE ([1]; rat urine, HQC 800 ng/mL, −80 °C for 30 days): −2.3%
Stability RE ([1]; rat urine, LQC 3 ng/mL, 4 °C for 24 h): −8.3%
Stability RE ([1]; rat urine, LQC 3 ng/mL, 25 °C for 4 h): 3.2%
Stability RE ([1]; rat urine, LQC 3 ng/mL, three freeze–thaw cycles): 5.8%
Stability RE ([1]; rat urine, LQC 3 ng/mL, −80 °C for 30 days): 6.2%
Stability RE ([1]; rat urine, MQC 100 ng/mL, 4 °C for 24 h): 2.5%
Stability RE ([1]; rat urine, MQC 100 ng/mL, 25 °C for 4 h): 4.3%
Stability RE ([1]; rat urine, MQC 100 ng/mL, three freeze–thaw cycles): −5.2%
Stability RE ([1]; rat urine, MQC 100 ng/mL, −80 °C for 30 days): 2.5%
fraction unbound at 5 h, 50 ng/mL ([3]; SD, rat plasma, 50 ng/mL): 0.368
fraction unbound at 5 h, 500 ng/mL ([3]; SD, rat plasma, 500 ng/mL): 0.386
fraction unbound at 5 h, 2500 ng/mL ([3]; SD, rat plasma, 2500 ng/mL): 0.355
fraction unbound at 5 h ([3]; Sprague-Dawley, rat plasma, 50, 500, 2500 ng/mL, read-out: mean plasma protein binding (PPB) (converted)): ~0.4
